# Tested on: CN0375-F725-PDC multi-cell spheroids, viability
# Assay: Anticancer human tumor CN0375-F725-PDC patient-derived colon carcinoma cell line growth inhibition [TAK]
# Details: for IC50: curve of first compound; for viability, T/C: stronger effect = lower value
# Description: Combinatorial screen of targeted agents with TAK-243 and ipatasertib in multi-cell type tumor spheroids
# A high-throughput screen of multi-cell type tumor spheroids was designed to identify active combinations of targeted small molecules and TAK-243 or ipatasertib. Complex spheroids include a stromal component modeled by human endothelial cells (HUVEC) and fibroblasts modeled by human mesenchymal stem cells (MSCs). The concentration ranges selected for each drug and investigational agent were based upon clinically achievable concentrations if the clinical Cmax of the agent was known.
# Compounds. The drugs and investigational agents: TAK-243 (785004), ipatasertib (767898), everolimus (733504), selumetinib (741078), bortezomib (756655), trametinib (758246), ixazomib (758254), vemurafenib (761431), dabrafenib (764134), sapanisertib (764658), alpelisib (765974), and copanlisib (816437), were obtained from the National Cancer Institute (NCI) Developmental Therapeutics Program Chemical Repository. The FDA-approved anticancer drug set is available from the NCI Developmental Therapeutics Program. […] The stock solutions were prepared in dimethyl sulfoxide (DMSO, Sigma-Aldrich, St. Louis, MO, cat. D2650) at 800-fold the tested concentration and stored at -70 degrees C prior to their use. All drugs and investigational agents were tested over a range starting from a high concentration at or near the clinical Cmax and decreasing in half-log increments. If the clinical Cmax for an agent had not been determined, the highest concentration tested was 10 microM.
# NCI60 Cell Culture. NCI60 cell lines were obtained from the NCI Developmental Therapeutics Program Tumor Repository. For each lot of cells, the Repository performed Applied Biosystems AmpFLSTR Identifiler testing with PCR amplification to confirm consistency with the published Identifier STR profile for each cell line. Cells were kept in continuous culture for no more than 20 passages. The optimal seeding densities for each of the cell lines at each time point assessed were determined prior to performing the concentration response studies. Briefly, the NCI60 human tumor lines were grown as monolayers in RPMI 1640 medium supplemented with 10% FBS and 2 mmol/L L-glutamine.
# An additional 2 lines were from the NCI60 cell line panel including melanomas, MALME-3M and SK-MEL-2. Pooled donor human umbilical vein endothelial cells (HUVEC, Lonza, cat. CC-2519) and human mesenchymal stem cells (hMSC, Lonza, cat. PT-2501) were purchased from Lonza (Walkersville, MD).
# PDMR cell lines were grown in complete medium (DC medium): Dulbecco's modified Eagle's medium (DMEM)/F12 supplemented with 5% fetal bovine serum (FBS), 2 mM L-glutamine, 100 U/mL penicillin and 100 µg/ml streptomycin, 0.4 µg/ml hydrocortisone, 10 ng/ml epidermal growth factor (EGF) recombinant human protein, 24 µg/mL adenine, and 0.1 mg/mL primocin. During culture from frozen stock vials, PDMR cells were cultured in the same medium containing 10 µM Y-27632 (see Table 3). The PDCs were cultured in complete DMEM/F12 media without 10 microM Y-27632 dihydrochloride for at least two passages prior to the screen. The pooled donor HUVEC and hMSC were cultured in endothelial cell growth medium 2 (PromoCell, Heidelberg, Germany, cat. C-22011) and mesenchymal stem cell growth medium 2 (PromoCell, cat. C-28009), respectively. For all experiments, HUVEC and hMSC were used at passages </=5.
# For the pre-screen, cell seeding densities were determined from a titration spanning the range from 5,000 to 313 cells per well. The mct-spheroids including 60% malignant cells, 25% HUVEC and 15% MSC dispensed as a mixture into U-bottom Ultra-Low Attachment 384-well plates (Corning, NY)
# High-throughput Drug Combination Screening.
# Prior to their inoculation into 384-well plates, malignant cells, HUVEC, and hMSC were removed from T flasks using TrypLE express (Thermo Fisher Scientific, cat. 12605036) and harvested by centrifugation for 5 min at 233 x g. […]
# [1] = second compound 0.3 µM, first compound 0.0316 µM
# [2] = second compound 0.3 µM, first compound 0.1 µM
# [3] = second compound 0.949 µM, first compound 0.0316 µM
# [4] = second compound 0.949 µM, first compound 0.1 µM
# [5] = second compound 3 µM, first compound 0.0316 µM
# [6] = second compound 3 µM, first compound 0.1 µM
# [7] = second compound 9.49 µM, first compound 0.0316 µM
# [8] = second compound 9.49 µM, first compound 0.1 µM
# [9] = second compound 30 µM, first compound 0.0316 µM
# [10] = second compound 30 µM, first compound 0.1 µM
# 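Further: spheroids exposed to drugs for seven days.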
# 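Wherever viability, T/C is given: 100% = DMSO vehicle control wells.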
smiles,measurement,setting,value
CC(C)(C)c1nc(-c2cccc(NS(=O)(=O)c3c(F)cccc3F)c2F)c(-c2ccnc(N)n2)s1 + CC(C)NCC(C(=O)N1CCN(c2ncnc3c2C(C)CC3O)CC1)c1ccc(Cl)cc1,IC50,second compound 0.3 µM,> 10000 nM
same,IC50,second compound 0.949 µM,> 10000 nM
same,IC50,second compound 3 µM,> 10000 nM
same,IC50,second compound 9.49 µM,> 10000 nM
same,IC50,second compound 30 µM,> 10000 nM
same,"viability, T/C",[1],121%
same,"viability, T/C",[2],128%
same,"viability, T/C","second compound 0.3 µM, first compound 0.316 µM",124%
same,"viability, T/C","second compound 0.3 µM, first compound 1 µM",118%
same,"viability, T/C","second compound 0.3 µM, first compound 3.16 µM",105%
same,"viability, T/C","second compound 0.3 µM, first compound 10 µM",108%
same,"viability, T/C",[3],123%
same,"viability, T/C",[4],125%
same,"viability, T/C","second compound 0.949 µM, first compound 0.316 µM",120%
same,"viability, T/C","second compound 0.949 µM, first compound 1 µM",111%
same,"viability, T/C","second compound 0.949 µM, first compound 3.16 µM",95%
same,"viability, T/C","second compound 0.949 µM, first compound 10 µM",107%
same,"viability, T/C",[5],108%
same,"viability, T/C",[6],119%
same,"viability, T/C","second compound 3 µM, first compound 0.316 µM",120%
same,"viability, T/C","second compound 3 µM, first compound 1 µM",103%
same,"viability, T/C","second compound 3 µM, first compound 3.16 µM",94.9%
same,"viability, T/C","second compound 3 µM, first compound 10 µM",92.1%
same,"viability, T/C",[7],98%
same,"viability, T/C",[8],108%
same,"viability, T/C","second compound 9.49 µM, first compound 0.316 µM",105%
same,"viability, T/C","second compound 9.49 µM, first compound 1 µM",97.9%
same,"viability, T/C","second compound 9.49 µM, first compound 3.16 µM",85.4%
same,"viability, T/C","second compound 9.49 µM, first compound 10 µM",86.2%
same,"viability, T/C",[9],94.3%
same,"viability, T/C",[10],102%
same,"viability, T/C","second compound 30 µM, first compound 0.316 µM",89.6%
same,"viability, T/C","second compound 30 µM, first compound 1 µM",79.3%
same,"viability, T/C","second compound 30 µM, first compound 3.16 µM",77.7%
same,"viability, T/C","second compound 30 µM, first compound 10 µM",75%
CC(C)CC(NC(=O)CNC(=O)c1cc(Cl)ccc1Cl)B1OC(=O)CC(CC(=O)O)(C(=O)O)O1 (stereo not given) + CC(C)NCC(C(=O)N1CCN(c2ncnc3c2C(C)CC3O)CC1)c1ccc(Cl)cc1,IC50,second compound 0.3 µM,49.3 nM
same,IC50,second compound 0.949 µM,43.2 nM
same,IC50,second compound 3 µM,45.8 nM
same,IC50,second compound 9.49 µM,30.6 nM
same,IC50,second compound 30 µM,17.5 nM
same,"viability, T/C","second compound 0.3 µM, first compound 0.000316 µM",102%
same,"viability, T/C","second compound 0.3 µM, first compound 0.001 µM",104%
same,"viability, T/C","second compound 0.3 µM, first compound 0.00316 µM",108%
same,"viability, T/C","second compound 0.3 µM, first compound 0.01 µM",99.4%
same,"viability, T/C",[1],68.4%
same,"viability, T/C",[2],20.7%
same,"viability, T/C","second compound 0.949 µM, first compound 0.000316 µM",102%
same,"viability, T/C","second compound 0.949 µM, first compound 0.001 µM",99.8%
same,"viability, T/C","second compound 0.949 µM, first compound 0.00316 µM",102%
same,"viability, T/C","second compound 0.949 µM, first compound 0.01 µM",98.8%
same,"viability, T/C",[3],60.3%
same,"viability, T/C",[4],22.4%
same,"viability, T/C","second compound 3 µM, first compound 0.000316 µM",91.8%
same,"viability, T/C","second compound 3 µM, first compound 0.001 µM",101%
same,"viability, T/C","second compound 3 µM, first compound 0.00316 µM",96.7%
same,"viability, T/C","second compound 3 µM, first compound 0.01 µM",101%
same,"viability, T/C",[5],65.9%
same,"viability, T/C",[6],16.4%
same,"viability, T/C","second compound 9.49 µM, first compound 0.000316 µM",86%
same,"viability, T/C","second compound 9.49 µM, first compound 0.001 µM",92.5%
same,"viability, T/C","second compound 9.49 µM, first compound 0.00316 µM",93.4%
same,"viability, T/C","second compound 9.49 µM, first compound 0.01 µM",93.6%
same,"viability, T/C",[7],48.8%
same,"viability, T/C",[8],15.6%
same,"viability, T/C","second compound 30 µM, first compound 0.000316 µM",77.9%
same,"viability, T/C","second compound 30 µM, first compound 0.001 µM",91.7%
same,"viability, T/C","second compound 30 µM, first compound 0.00316 µM",88.2%
same,"viability, T/C","second compound 30 µM, first compound 0.01 µM",76.2%
same,"viability, T/C",[9],22.2%
same,"viability, T/C",[10],5.95%
